Measurements published in patent US5843969A, “Protecting agent for organ or tissue” (Teijin Limited, priority 1995, dated 1998).

Columns and labels:
RBL-1 cells = assay: leukotriene B4 production in cultured RBL-1 cells (A23187 stimulated, enzyme immunoassay); assay type: cell-based
Description: RBL-1 cells (Dainippon Pharmaceutical Co.) were cultured in a Dulbecco's Modified Eagle's Medium containing fetal bovine serum in an amount of 10%. The cultured cells were adjusted to 5×10^6 cells/ml. […] After incubated at 37° C. for 5 min, this was immersed into ice and kept for 10 min. Subsequently, 2×10^-5 mol of A23187, Ca-ionophore, was added to the chilled cell suspension to make the final concentration of […], and the cell suspension was incubated again at 37° C. for 15 min. Further, the suspension was held in ice for 10 min. The suspension was subjected to centrifugation at 3000 rpm for 10 min and the cells were removed. Leukotriene B4 (LTB4) level in the supernatant was measured by enzyme immunoassay. […] A significant difference test against the control group was carried out using Bonferroni's test of a multiple comparison.

DNFB-sensitized mice [1] = assay: survival rate in DNFB-sensitized mice (allergic dermatitis model); assay type: in vivo, BALB/c mouse; details: 3, 10, 30 and 100 mg/kg/day oral; up to 6th day after final sensitization (FIGS. 4A and 4B)
Description: (§1) Therefore, the presence of such side effects was examined on the active component of the agent of the present invention by using a mouse allergic dermatitis model.
(§2) Hair was removed from the abdomen to the breast of a BALB/c mouse (male, 8 weeks of age) with hair clippers and a shaver. A 0.5% dinitro-fluorobenzene (DNFB) ethanol solution (100 μl head/day) was applied on the hair-removed part one day and two days after the removal of hair to establish sensitization. 2-(3-Cyano-4-isobutyloxyphenyl)-4-methyl-5-thiazolecarboxylic acid, the active component of the present invention, and allopurinol are each suspended in a 0.5% methylcellulose aqueous solution. Each suspension (3, 10, 30 and 100 mg/kg/10 ml/day) was orally administered to an animal at the same time of each DNFB sensitization. […]
(§3) The variations with time of the survival rate and the body weights of the mice administered with the agents were followed up to the 6th day after the final sensitization and recorded. […] The ear thicknesses were measured with a dial thickness gauge (Ozaki Seisakusho, G-1A) before the elicitation, and 24 hr and 48 hr after the elicitation.
(§4) The variations of the body weights and the ear thicknesses were expressed as the mean ± standard deviation for each group. […]

[2] = system: ischemia-reperfusion injury model of kidney; assay: renal ischemia-reperfusion injury model in rats, serum creatinine (Cre) level; assay type: in vivo, SD rat; details: 50 mg/kg oral 60 min prior to 60-min ischemia; 24-hour reperfusion; mean ± standard deviation; control 3.6±0.4, sham 0.4±0.0; p<0.05 vs control
Description: (§5) An ischemia-reperfusion injury model of kidney for studying effect on the ischemia-reperfusion injury was prepared with a rat as shown below, and the effect of the administration of the active component of the agent of the present invention was studied by using the model animal.
(§6) The abdomen of an SD rat (male, 6 weeks of age) was opened under anesthesia with sodium pentobarbital, the separated left and right renal arteries were clamped with arterial clips to block the blood flow completely, and the kidneys were brought into an ischemic state. After 60-minute ischemia, the artery clamps were released, and blood flow was restarted to bring the kidneys to a reperfused state. After the suture of the opened abdomen, the animal was returned to a cage and allowed to have free access to food and water. […]
(§7) Serum was separated from the obtained blood sample by centrifugation. Blood urea nitrogen (BUN) level and serum creatinine (Cre) level, a parameter for kidney function injury, were determined on the serum using an automated analyzer (Hitachi 7070) by an urease-indophenol method and Jaffe method, respectively.
(§8) 2-(3-Cyano-4-isobutyloxyphenyl)-4-methyl-5-thiazolecarboxylic acid, the active component, was suspended in a 0.5% methylcellulose aqueous solution. […] The results were each expressed as the mean ± standard deviation. […]

rats = assay: acute toxicity test, single oral administration in rats; assay type: in vivo, rat; details: single oral administration up to 300 mg/kg
Description: Further, for the safety evaluation of the agent of the present invention, an acute toxicity test is carried out with rats in terms of 2-(3-cyano-4-isobutyloxyphenyl)-4-methyl-5-thiazolecarboxylic acid as the active component.

DNFB-sensitized mice [3] = assay: ear thickness after elicitation of immune reaction in DNFB-sensitized mice; assay type: in vivo, BALB/c mouse
Description: as §1, §2, §3, §4

DNFB-sensitized mice [4] = assay: body weight in DNFB-sensitized mice (allergic dermatitis model); assay type: in vivo, BALB/c mouse; details: survived animals
Description: as §1
Hair was removed from the abdomen to the breast of a BALB/c mouse (male, 8 weeks of age) with hair clippers and a shaver. A 0.5% dinitro-fluorobenzene (DNFB) ethanol solution (100 μl head/day) was applied on the hair-removed part one day and two days after the removal of hair to establish sensitization. 2-(3-Cyano-4-isobutyloxyphenyl)-4-methyl-5-thiazolecarboxylic acid, the active component of the present invention, and allopurinol are each suspended in a 0.5% methylcellulose aqueous solution. Each suspension (3, 10, 30 and 100 mg/kg/10 ml/day) was orally administered to an animal at the same time of each DNFB sensitization. The number of animals is 8 for each of a 3- and a 10-mg/kg/10 ml/day group, and 10 for each of a 30- and a 100-mg/kg/10 ml/day group in each of the active component and the allopurinol. As the control group, 10 ml/kg of 0.5% methylcellulose aqueous solution, the solvent for the active component and allopurinol, was administered to each of 8 sensitized animals.
The variations with time of the survival rate and the body weights of the mice administered with the agents were followed up to the 6th day after the final sensitization and recorded. For survived sensitized animals, a 0.3% DNFB acetone-olive oil (4:1) mixed solution (10 μl on each of the obverse and the reverse side of an ear) was applied on one ear to elicit an immune reaction and an acetone-olive oil (4:1) mixed solution (10 μl on each of the obverse and the reverse side of an ear) was applied on the other ear on the sixth day after the final sensitization. The ear thicknesses were measured with a dial thickness gauge (Ozaki Seisakusho, G-1A) before the elicitation, and 24 hr and 48 hr after the elicitation.
as §4

[5] = system: ischemia-reperfusion injury model of kidney; assay: renal ischemia-reperfusion injury model in rats, serum BUN level; assay type: in vivo, SD rat; details: 50 mg/kg oral 60 min prior to 60-min ischemia; 24-hour reperfusion; compared with control group (FIG. 2)
Description: as §5, §6, §7, §8

[6] = clinical application; The Journal of Medicine 1984; The Annals of Pharmacotherapy 1993; cited from earlier work

SMILES | LTB4 production (RBL-1 cells; 1×10^-8 mol (final concentration of 10 μM), p<0.001 vs control (FIG. 3)) | survival rate (DNFB-sensitized mice [1]) | serum Cre level [2] [mg/dL] | death of rats (rats) | increase of the ear thickness (DNFB-sensitized mice [3]; 3, 10, 30 and 100 mg/kg/day oral, 24 hr and 48 hr after elicitation (FIG. 6)) | body weight change (DNFB-sensitized mice [4]; 3, 10, 30 and 100 mg/kg/day oral, up to 6th day after final sensitization (FIG. 5A)) | serum BUN level [5] | LTB4 production (RBL-1 cells; up to 1×10^-8 mol (final concentration of up to 10 μM) (FIG. 3)) | side effects [6] | increase of the ear thickness and allergy reaction (DNFB-sensitized mice [3]; 30 mg/kg oral, after elicitation, p<0.05 vs control (FIG. 6)) | body weight change (DNFB-sensitized mice [4]; 30 mg/kg oral, p<0.01 vs control (FIG. 5B)) | body weight change (DNFB-sensitized mice [4]; 100 mg/kg oral, p<0.05 vs control (FIG. 5B))
Cc1nc(-c2ccc(OCC(C)C)c(C#N)c2)sc1C(=O)O [2-(3-cyano-4-isobutyloxyphenyl)-4-methyl-5-thiazolecarboxylic acid] | suppresses the production of LTB4 significantly | all animals were survived, excluding one animal of the 100 mg/kg/day group | 2.3 ± 1.1 | None of rats died | none of the effect in terms of the increase of the ear thicknesses was observed | did not produce a significant change on the body weights of the animals | exhibited a tendency to suppress the increase of the serum BUN |  |  |  |  | 
Oc1ncnc2[nH]ncc12 [allopurinol, reference compound] |  | survival rate decreased dose-dependently with time from a low dose level |  |  |  |  |  | had no effect on the production | side effects including an allergy reaction during clinical application and occasionally the side effect is so severe that the patient is brought to death | stimulated the increase of the ear thicknesses, and the allergy reaction significantly | decreased the body weights of the animals significantly | decreased the body weights of the animals significantly
